Measured values published in PubChem BioAssay (NCI).
“And” between values parts separate entries of the source, which are not always exact repeats. Identical values can stand only once.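 The compound was tested at five concentrations on cells cultured in 96-well plates, with a 48-hour exposure period. At the GI50, growth is halved. TGI: total growth inhibition.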

Legend:
Assay in all cases: NCI tumour cell line growth inhibition, 48 h
NCI-H226 lung = test system: NCI-H226 lung
A549 NSCLC = test system: A549 NSCLC
EKVX NSCLC = test system: EKVX NSCLC
SK-MEL-28 melanoma = test system: SK-MEL-28 melanoma
K-562 leukemia = test system: K-562 leukemia
TK-10 renal = test system: TK-10 renal
PC-3 prostate = test system: PC-3 prostate
CAKI-1 renal = test system: CAKI-1 renal
RXF 393 renal = test system: RXF 393 renal
UO-31 renal = test system: UO-31 renal

Structure (SMILES)	TGI (NCI-H226 lung) [µM]	TGI (A549 NSCLC) [µM]	TGI (EKVX NSCLC) [µM]	TGI (SK-MEL-28 melanoma) [µM]	TGI (K-562 leukemia) [µM]	TGI (TK-10 renal) [µM]	TGI (PC-3 prostate) [µM]	TGI (CAKI-1 renal) [µM]	TGI (RXF 393 renal) [µM]	TGI (UO-31 renal) [µM]	GI50 (NCI-H226 lung)	GI50 (A549 NSCLC) [µM]	GI50 (SK-MEL-28 melanoma) [µM]	GI50 (K-562 leukemia) [µM]	GI50 (TK-10 renal) [µM]	GI50 (PC-3 prostate) [µM]	GI50 (UO-31 renal) [µM]	GI50 (CAKI-1 renal) [µM]
Nc1ccc(Nc2cc(=O)[nH]c(=O)[nH]2)cc1	> 100	> 100	> 100	> 100	> 100	> 100	> 100	> 100										
COc1ccc2nc3c(c(NCCCN(C)C)c2c1)CCCC3	30.7	49.9	40.5	30.9	8.3	> 100		27.9	29.5	39.6								
COC(=O)c1c(C)cccc1C1CN=NC12Cc1ccc(C)c(C)c1C2=O (configuration not stated)	> 100	> 100	82.5	> 100	> 100	> 100		> 100	> 100	> 100								
Cc1ccc(-c2nnc(CCCCCCCCc3nnc(-c4ccc(C)cc4O)n3N)n2N)c(O)c1		> 100	> 100	> 100		> 100		> 100		> 100								
Cc1nc2n(c1/C=C1/C(=O)Nc3ccccc31)CCS2		> 100	> 100	> 100	> 100	> 100	> 100	> 100	71.3	> 100								
O=C1Nc2cc([N+](=O)[O-])c(Br)cc2C1=O	76.4	> 100	47.4	36.3	55.7	> 100		47.5	39.4	36.2								
CC(C)(O)C1CC[C@]2(C)[C@H]3CC[C@@H]4[C@@]5(C)CCCC(C)(C)[C@@H]5CC[C@@]4(C)[C@]3(C)CC[C@@H]12 (some centres not stated)		> 100	> 100	> 100		> 100	> 100	> 100	> 100									
CC(=O)NC1=C(NCCCl)C(=O)c2ccccc2C1=O	> 100	> 100	> 100	> 100	> 100		96.2		69.8									
O=S(=O)(c1ccc(-c2nnc(-c3ccc(F)cc3)o2)cc1)c1ccc(-c2nnc(-c3ccc(F)cc3)o2)cc1	> 100	> 100	> 100		> 100		> 100	> 100	77.7	> 100								
Cn1c([C@H](C#N)C(=O)c2cc(O)ccc2[N+](=O)[O-])nc2ccccc21		> 100	> 100	> 100		> 100	> 100	> 100		> 100								
C=C(C)C1CC/C(C)=C/CC[C@]2(C)O[C@@H]2CCC2=CC1OC2=O (some centres not stated)	> 100	> 100		> 100	27.7	> 100	> 100	49.1		25.3	> 100 µM	23.4	> 100	14.6	15.7	48.9	12.7	19
CCOC(=O)c1cc2c(OCc3ccccc3)c(OC)cc3c2c(n1)N(c1ccc(OC)cc1)C(C)C3 (configuration not stated)		> 50	> 50	> 50	> 50	> 50		> 50	> 50	> 50								
O=NN(CCF)C(=O)NC1CC2CCC1C2 (configuration not stated)		> 100	> 100	> 100	> 100			> 100	> 100	> 100								
Cc1cn(C2CC(CCCO)C(CO)O2)c(=O)[nH]c1=O (configuration not stated)	> 100	> 100	> 100	> 100	> 100	> 100		> 100	> 100	> 100	> 100 µM and 18.4 µM							
Cc1nnc2n(c1=O)CCN2C	> 100	> 100	> 100	> 100	> 100	> 100	> 100		> 100	> 100								
CCOC(=O)C(NC(=O)CC)(Nc1ccc(S(=O)(=O)Nc2onc(C)c2C)cc1)C(F)(F)F (configuration not stated)	> 100	> 100	> 100	> 100	> 100		> 100	> 100	> 100	> 100								
CCC(COC(=O)CC[C@@H](NC(=O)C(C)NC(=O)C(C)OC1C(O)C(CO)OC(OCc2ccccc2)C1NC(C)=O)C(N)=O)NC1c2ccccc2Nc2cccc([N+](=O)[O-])c21 (some centres not stated)	> 100	> 100	> 100	> 100	> 100	> 100		> 100	84.6	> 100								
O=S(=O)(O)c1cccc2cccc(N=Nc3c(O)ccc4ccccc34)c12	> 100	> 100	> 100		> 100	> 100	> 100	> 100	> 100	> 100								
CC12CCCCC1=[N+]([O-])C(C)(C)N2O (configuration not stated)	> 100	> 100	> 100	> 100		> 100	> 100	> 100	> 100	> 100								
Cc1c(OCc2ccccc2)c(=O)ccn1CCc1c[nH]c2ccccc12		> 100	> 100			> 100	> 100			> 100								
COC(=O)c1c(CC(Cc2ccc3c(c2)CCCC3)C(=O)OC)ccc2c1CCCC2 (configuration not stated)		> 100	77.1	> 100	> 100	> 100	> 100	> 100	> 100	> 100								
COC(=O)C(=O)C(C(=O)C(=O)Nc1cccc([N+](=O)[O-])c1)c1nc2ccc(Cl)cc2[nH]c1=O (configuration not stated)	> 100	> 100	> 100	> 100		> 100	> 100	> 100	> 100	> 100								
O=C(Sc1c(-c2ccccc2)c(=O)n(-c2ccccc2)c(=S)n1-c1ccccc1)c1cccs1	> 100	> 100	> 100	> 100	> 100	> 100	> 100	> 100		> 100								
